{"source": "patent US20230134986A1", "about": "“GLUCOSE TRIPTOLIDE CONJUGATES AND USES THEREOF” (The Johns Hopkins University, priority 2020, published 2023)", "format_in_all_cases": "cell-based, human", "key": {"[1]": {"tested_on": "RPB1 (catalytic subunit of RNAPII)", "assay": "RPB1 (RNAPII) degradation in HeLa cells, immunostaining and western blot", "set-up": "endogenous RNAPII (RPB1) level: unit of the concentration uncertain", "conditions": "1 (unit uncertain) compound 1, 24 h", "experimental": "(§1) Western blot analysis. Whole cell lysates were prepared by adding lysis buffer [4% SDS, 20% glycerol, 10% 2-mercaptoethanol, 0.004% bromophenol blue, 0.125 M Tris-HCl (pH 6.8)] to the cell pellets for 30 minutes in ice followed by centrifugation at 12,000×g for 10 minutes then boiling for 5 minutes. For isolation of cytosolic and mitochondrial fractions of cytochrome C, cell pellets were resuspended in CLAMI buffer (250 mM sucrose, 70 mM KCl, […] digitonin in 1×PBS, protease inhibitor cocktail (1 tablet/10 ml CLAMI buffer)) then incubated on ice for 5 minutes. After centrifugation at 12,000×g for 5 minutes at 4° C., supernatant (cytoplasmic fraction) was collected and the pellet resuspended in lysis buffer as described above. Proteins were then separated by SDS-PAGE and transferred to nitrocellulose membranes (Bio-Rad). After blocking at room temperature for 1 h, membranes were incubated at 4′C overnight with the primary antibodies including anti-Rpb1 (Santa Cruz Biotechnology), anti-XPB (Biotechne), anti-Actin (Developmental Studies Hybridoma Bank), anti-GAPDH (Santa Cruz Biotechnology), anti-cytochrome C (Santa Cruz Biotechnology), anti-PARP1 (Santa Cruz Biotechnology), anti-cleaved caspase 3 (Cell Signaling Technology), anti-VDAC (ProteinTech), anti-HIF-1[…] (BD sciences), and anti-GLUT1 (Santa Cruz Biotechnology) antibodies followed by incubation with horseradish peroxidase-conjugated anti-mouse or anti-rabbit IgG (GE Healthcare) at room temperature for 2 hours. Antibody-protein complexes were detected using enhanced chemiluminescence (ECL) immunoblotting detection reagent (EMD Millipore).\nImmunocytochemistry and cytochemistry. […] Glucose uptake was monitored by incubating cells in 200 μM 2-NBDG (ThermoFisher) for 6 hours prior to fixation. Fluorescence was observed under the Nikon Eclipse TE200 Inverted microscope (Nikon Instruments Inc., Melville, N.Y., USA). […] Rpb1 levels were measured using the MEASURE feature of ImageJ where all the background signals were subtracted from the intergrated density of nuclear Rpb1."}, "HeLa": {"tested_on": "HeLa", "assay": "HeLa proliferation under hypoxia ([3H]-thymidine incorporation)", "conditions": "1% O2, 48 h post treatment"}, "HeLa cells": {"tested_on": "HeLa cells", "assay": "Apoptosis signaling in HeLa cells (nuclear fragmentation, cytochrome c, caspase 3, PARP1)", "set-up": "percentage of cells with nuclear fragmentation / cytochrome c release from mitochondria to cytosol: unit of the concentration uncertain", "conditions": "for percentage of cells with nuclear fragmentation: control 6%", "experimental": "as §1\nImmunocytochemistry and cytochemistry. HeLa or PC3 cells (2×10^5) were seeded on a MatTek glass bottom culture dish (Fisher Scientific, Pittsburgh, Pa., USA) and allowed to adhere for 24 h. Cells were then treated with either DMSO or drugs for 6 or 24 h then fixed with 4% paraformaldehyde, permeabilized using 1×PBS with 0.5% triton X 100 then probed for endogenous RNA Polymerase II catalytic subunit Rpb1 or HIF-1α using anti-RNAPII (Santa Cruz Biotechnology) and anti-HIF-1α (BD sciences) antibodies, respectively. Detection was then done using anti-mouse Alexa Fluor 488 (Invitrogen). For nuclear staining, fixed and permeabilized cells were incubated in DAPI (ThermoFisher) or Hoechst 33258 (Sigma) for 30 minutes prior to imaging. Glucose uptake was monitored by incubating cells in 200 μM 2-NBDG (ThermoFisher) for 6 hours prior to fixation. Fluorescence was observed under the Nikon Eclipse TE200 Inverted microscope (Nikon Instruments Inc., Melville, N.Y., USA). ImageJ software (NIH, Bethesda, Md., USA; http://imagej.nih.gov/ij/index.html) was used to measure intracellular protein levels in immuno-cytochemistry samples (Li et al. (2015) Toxicological Sciences: an Official Journal of the Society of Toxicology 143:196-208). Rpb1 levels were measured using the MEASURE feature of ImageJ where all the background signals were subtracted from the intergrated density of nuclear Rpb1."}, "[2]": {"conditions": "HeLa, 3 (unit uncertain) compound 1"}}}
{"smiles": "CC(C)[C@]12O[C@H]1[C@@H]1O[C@]13[C@]1(O[C@H]1C[C@H]1C4=C(CC[C@@]13C)C(=O)OC4)[C@@H]2OC(=O)CCCO[C@@H]1OC(CO)[C@@H](O)C(O)C1O", "note": "(stereo in doubt) [Compound 1]", "values": [{"measurement": "endogenous RNAPII (RPB1) level", "setting": "[1]", "result": "depletes endogenous RNA polymerase II"}, {"measurement": "effect of hypoxia on anti-proliferative effect", "setting": "HeLa", "result": "enhances the anti-proliferative effect"}, {"measurement": "percentage of cells with nuclear fragmentation", "setting": "HeLa cells; HeLa, 1 (unit uncertain) compound 1", "result": 23, "unit": "%"}, {"measurement": "cytochrome c release from mitochondria to cytosol", "setting": "HeLa cells; [2]", "result": "triggers the release of cytochrome c"}, {"measurement": "percentage of cells with nuclear fragmentation", "setting": "HeLa cells; [2]", "result": 53, "unit": "%"}, {"measurement": "caspase-3 activation", "setting": "HeLa cells; HeLa, western blot", "result": "activated caspase-3 dose dependently"}, {"measurement": "PARP1 cleavage", "setting": "HeLa cells; increasing concentrations of compound 1, western blot", "result": "Pronounced PARP1 cleavage"}]}
